Publication PMC11255275, “Structural insights into the triple agonism at GLP-1R, GIPR and GCGR manifested by retatrutide” (Cell Discovery, 2024)
Read-outs that look alike come from different tables or passages of the source.

Key:
[1] = cited from earlier work; for decrease in body weight (up to): single dose, ref Coskun T et al (supplement ref 17)
From the text: For humans, events were mild, such as 50 1 ascending (PMID: 4 months ...

[2] = biological target: T1, GCGR mutants (Homo sapiens, UniProt P47871, Q293A); assay: cAMP accumulation, single-point mutated GCGR; assay type: cell-based; settings: GCGR Q293(ECL2)A, HEK-293T, 40 min, TR-FRET, mean ± S.E.M., n at least 3
T1 construct: expressed in transfected cells; host or cells: HEK-293T
Protocol: (§1) HEK-293T cells were maintained at 37°C in 5% CO2 incubator and seeded onto 6-well cell […]
(§2) culture plates before transfection. After overnight culture, the cells were transiently transfected […]
(§3) with various constructs using Lipofectamine 2000 transfection reagent (Invitrogen). After 24 h, […]
(§4) the transfected cells were seeded onto 384-microtiter plates at a density of 3,000 cells per well […]
(§5) in stimulation buffer (HBSS supplemented with 5 mM HEPES, 0.1% (w/v) casein and 0.5 mM […]
(§6) 3-isobutyl-1-methylxanthine). Different concentrations of retatrutide in stimulation buffer were […]
(§7) added, and the stimulation lasted for 40 min. The reaction was stopped by addition of cAMP […]
(§8) detection buffer containing Eu-cAMP tracer and ULight-anti-cAMP. Plates were then incubated for […]
(§9) 60 min at RT. Time-resolved FRET signals were measured at 620 nm and 665 nm, respectively, by […]
(§10) an EnVision multilabel plate reader (PerkinElmer). Data were analyzed in GraphPad PRISM 9.5 […]
(§11) and all values were normalized to that of the wild-type (WT).
(§12) Supplementary Fig. 5 Effects of receptor mutation on retatrutide-induced cAMP […]
(§13) accumulation. a-c, Signaling profiles of GLP-1R (a), GIPR (b) and GCGR (c) mutants. cAMP […]
(§14) accumulation was measured in wild-type (WT) and single-point mutated GLP-1R, GIPR or […]
(§15) GCGR expressing HEK-293T cells. cAMP levels were normalized to the maximum response […]
(§16) of the WT and dose-response curves were analyzed using a three-parameter logistic equation.
(§17) Data were generated and graphed as means ± S.E.M. of at least three independent experiments performed in quadruplicate.
(§18) (1 picture or pasted object on this page, not shown here)
(§19) Supplementary Ta b l e S 5 Effects of the ligand-binding pocket residue mutation on retatrutide- […]
(§20) induced cAMP signaling at GLP-1R, GIPR or GCGR. […]
(§21) cAMP levels were normalized to the maximum response of the wild-type (WT) and dose-response […]
(§22) curves were analyzed using a three-parameter logistic equation to obtain pEC50 and Emax values. The […]
(§23) experiments were carried out independently at least three times. Data shown are means ± S.E.M. One- […]
(§24) way ANOVA was used to determine statistical difference. N.D., values that could not be determined due […]
(§25) to incomplete curve fits. *P< 0.05, **P< 0.01, ***P< 0.001 and ****P<0.0001.

[3] = biological target: T2, GCGR mutants (Homo sapiens, UniProt P47871, W215A); assay: cAMP accumulation, single-point mutated GCGR; assay type: cell-based; settings: GCGR W215(ECL1)A, HEK-293T, 40 min, TR-FRET, mean ± S.E.M., n at least 3
T2 construct: expressed in transfected cells; host or cells: HEK-293T
Protocol: as §1, §2, §3, §4, §5, §6, §7, §8, §9, §10, §11, §12, §13, §14, §15, §16, §17, §18, §19, §20, §21, §22, §23, §24, §25

[4] = biological target: T3, GCGR mutants (Homo sapiens, UniProt P47871, K205A); assay: cAMP accumulation, single-point mutated GCGR; assay type: cell-based; settings: GCGR K205(ECL1)A; HEK-293T, 40 min, TR-FRET; mean ± S.E.M., n at least 3
T3 construct: expressed in transfected cells; host or cells: HEK-293T
Protocol: as §1, §2, §3, §4, §5, §6, §7, §8, §9, §10, §11, §12, §13, §14, §15, §16, §17, §18, §19, §20, §21, §22, §23, §24, §25

[5] = biological target: T4, GCGR mutants (Homo sapiens, UniProt P47871, Q131A); assay: cAMP accumulation, single-point mutated GCGR; assay type: cell-based; settings: GCGR Q131(1.29b)A; HEK-293T, 40 min, TR-FRET; mean ± S.E.M., n at least 3
T4 construct: expressed in transfected cells; host or cells: HEK-293T
Protocol: as §1, §2, §3, §4, §5, §6, §7, §8, §9, §10, §11, §12, §13, §14, §15, §16, §17, §18, §19, §20, §21, §22, §23, §24, §25

[6] = biological target: T5, GCGR mutants (Homo sapiens, UniProt P47871, Y138L); assay: cAMP accumulation, single-point mutated GCGR; assay type: cell-based; settings: GCGR Y138(1.36b)L, HEK-293T, 40 min, TR-FRET, mean ± S.E.M., n at least 3
T5 construct: expressed in transfected cells; host or cells: HEK-293T
Protocol: as §1, §2, §3, §4, §5, §6, §7, §8, §9, §10, §11, §12, §13, §14, §15, §16, §17, §18, §19, §20, §21, §22, §23, §24, §25

[7] = biological target: T6, GCGR mutants (Homo sapiens, UniProt P47871, E362A); assay: cAMP accumulation, single-point mutated GCGR; assay type: cell-based; settings: GCGR E362(6.53b)A, HEK-293T, 40 min, TR-FRET, mean ± S.E.M., n at least 3
T6 construct: expressed in transfected cells; host or cells: HEK-293T
Protocol: as §1, §2, §3, §4, §5, §6, §7, §8, §9, §10, §11, §12, §13, §14, §15, §16, §17, §18, §19, §20, §21, §22, §23, §24, §25

[8] = biological target: T7, GCGR mutants (Homo sapiens, UniProt P47871, Y202A); assay: cAMP accumulation, single-point mutated GCGR; assay type: cell-based; settings: GCGR Y202(2.75b)A, HEK-293T, 40 min, TR-FRET, mean ± S.E.M., n at least 3
T7 construct: expressed in transfected cells; host or cells: HEK-293T
Protocol: as §1, §2, §3, §4, §5, §6, §7, §8, §9, §10, §11, §12, §13, §14, §15, §16, §17, §18, §19, §20, §21, §22, §23, §24, §25

[9] = test system: GCGR mutants; assay: cAMP accumulation, single-point mutated GCGR; assay type: cell-based, human; settings: relative to WT
Protocol: as §1, §2, §3, §4, §5, §6, §7, §8, §9, §10, §11, §12, §13, §14, §15, §16, §17, §18, §19, §20, §21, §22, §23, §24, §25

[10] = biological target: T8, GCGR mutants (Homo sapiens, UniProt P47871, S297A); assay: cAMP accumulation, single-point mutated GCGR; assay type: cell-based; settings: GCGR S297(ECL2)A; HEK-293T, 40 min, TR-FRET; mean ± S.E.M., n at least 3
T8 construct: expressed in transfected cells; host or cells: HEK-293T
Protocol: as §1, §2, §3, §4, §5, §6, §7, §8, §9, §10, §11, §12, §13, §14, §15, §16, §17, §18, §19, §20, §21, §22, §23, §24, §25

[11] = biological target: T9, GCGR mutants (Homo sapiens, UniProt P47871, I194K); assay: cAMP accumulation, single-point mutated GCGR; assay type: cell-based; settings: GCGR I194(2.67b)K, HEK-293T, 40 min, TR-FRET, mean ± S.E.M., n at least 3
T9 construct: expressed in transfected cells; host or cells: HEK-293T
Protocol: as §1, §2, §3, §4, §5, §6, §7, §8, §9, §10, §11, §12, §13, §14, §15, §16, §17, §18, §19, §20, §21, §22, §23, §24, §25

[12] = biological target: T10, GCGR mutants (Homo sapiens, UniProt P47871, D385A); assay: cAMP accumulation, single-point mutated GCGR; assay type: cell-based; settings: GCGR D385(7.42b)A, HEK-293T, 40 min, TR-FRET, mean ± S.E.M., n at least 3
T10 construct: expressed in transfected cells; host or cells: HEK-293T
Protocol: as §1, §2, §3, §4, §5, §6, §7, §8, §9, §10, §11, §12, §13, §14, §15, §16, §17, §18, §19, §20, §21, §22, §23, §24, §25

T10 sequence (P47871 26-477 D385A): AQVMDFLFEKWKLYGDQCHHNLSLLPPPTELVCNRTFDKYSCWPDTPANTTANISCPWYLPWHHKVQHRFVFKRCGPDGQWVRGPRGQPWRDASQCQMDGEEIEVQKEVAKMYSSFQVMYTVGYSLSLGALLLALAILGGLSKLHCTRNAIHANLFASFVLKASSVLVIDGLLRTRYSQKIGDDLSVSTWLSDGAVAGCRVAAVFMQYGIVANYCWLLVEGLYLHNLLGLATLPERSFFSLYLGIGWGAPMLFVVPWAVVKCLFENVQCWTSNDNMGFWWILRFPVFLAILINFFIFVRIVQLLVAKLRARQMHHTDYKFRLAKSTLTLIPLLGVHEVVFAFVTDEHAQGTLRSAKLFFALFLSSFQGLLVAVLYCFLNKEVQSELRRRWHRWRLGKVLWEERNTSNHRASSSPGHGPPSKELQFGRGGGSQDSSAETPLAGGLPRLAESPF
T3 sequence (P47871 26-477 K205A): as the sequence (P47871 26-477 D385A) above, with K180A, A360D counted along it
T4 sequence (P47871 26-477 Q131A): as the sequence (P47871 26-477 D385A) above, with Q106A, A360D counted along it
T5 sequence (P47871 26-477 Y138L): as the sequence (P47871 26-477 D385A) above, with Y113L, A360D counted along it
T1 sequence (P47871 26-477 Q293A): as the sequence (P47871 26-477 D385A) above, with Q268A, A360D counted along it
T6 sequence (P47871 26-477 E362A): as the sequence (P47871 26-477 D385A) above, with E337A, A360D counted along it
T2 sequence (P47871 26-477 W215A): as the sequence (P47871 26-477 D385A) above, with W190A, A360D counted along it
T7 sequence (P47871 26-477 Y202A): as the sequence (P47871 26-477 D385A) above, with Y177A, A360D counted along it
T8 sequence (P47871 26-477 S297A): as the sequence (P47871 26-477 D385A) above, with S272A, A360D counted along it
T9 sequence (P47871 26-477 I194K): as the sequence (P47871 26-477 D385A) above, with I169K, A360D counted along it

In the case of `CC[C@H](C)[C@H](NC(=O)[C@H](Cc1ccccc1)NC(=O)[C@H](C)NC(=O)C(C)(C)NC(=O)[C@H](CCC(N)=O)NC(=O)[C@H](C)NC(=O)[C@H](CCCCNC(=O)COCCOCCNC(=O)CC[C@H](NC(=O)CCCCCCCCCCCCCCCCCCC(=O)O)C(=O)O)NC(=O)[C@H](CCCCN)NC(=O)[C@H](CC(=O)O)NC(=O)[C@H](CC(C)C)NC(=O)[C@](C)(CC(C)C)NC(=O)[C@@H](NC(=O)[C@H](CO)NC(=O)[C@H](Cc1ccc(O)cc1)NC(=O)[C@H](CC(=O)O)NC(=O)[C@H](CO)NC(=O)[C@@H](NC(=O)[C@H](Cc1ccccc1)NC(=O)[C@@H](NC(=O)CNC(=O)[C@H](CCC(N)=O)NC(=O)C(C)(C)NC(=O)[C@@H](N)Cc1ccc(O)cc1)[C@@H](C)O)[C@@H](C)O)[C@@H](C)CC)C(=O)N[C@@H](CCC(=O)O)C(=O)N[C@@H](Cc1ccc(O)cc1)C(=O)N[C@@H](CC(C)C)C(=O)N[C@@H](CC(C)C)C(=O)N[C@@H](CCC(=O)O)C(=O)NCC(=O)NCC(=O)N1CCC[C@H]1C(=O)N[C@@H](CO)C(=O)N[C@@H](CO)C(=O)NCC(=O)N[C@@H](C)C(=O)N1CCC[C@H]1C(=O)N1CCC[C@H]1C(=O)N1CCC[C@H]1C(=O)N[C@@H](CO)C(N)=O` [retatrutide], the body weight reduction ([1]; 3 mg group, ref Urva S et al (supplement ref 18)) is given as “–4.71 kg”, the “decrease in body weight (up to)” value ([1]; 4.5 mg) is given as “–2.93 kg” and the “decrease in body weight (up to)” value ([1]; 6 mg) is given as “–3.52 kg”. For the same compound, the body weight reduction ([1]; 3/6 mg group, ref Urva S et al (supplement ref 18)) was “–7.83 kg”, the “fasting and postprandial plasma glucose and HbA1c” value ([1]; compared to placebo, ref Urva S et al (supplement ref 18)) was “clinically decreases” and the “severity of most treatment-related adverse events” value ([1]; human, in vivo) was “mild”. For the same compound, the glycemic control ([1]; ref Urva S et al (supplement ref 18)) was “showed glycemic control efficacy”, the “Emax ± S.E.M. (% WT)” value [2] was 99.73 ± 0.94 % WT and the EC50 ([2]; **P < 0.01) was 3.24 pM. The “Emax ± S.E.M. (% WT)” value [3] was 101.34 ± 2.03 % WT, the EC50 ([3]; ****P < 0.0001) was 66.1 pM and the EC50 [4] was 9.33 pM. For the same compound, the “Emax ± S.E.M. (% WT)” value [4] was 100.00 ± 2.06 % WT, the EC50 [5] was 6.76 pM and the “Emax ± S.E.M. (% WT)” value [5] was 100.15 ± 1.51 % WT. The “Emax ± S.E.M. (% WT)” value [6] was 100.64 ± 1.39 % WT, the EC50 ([6]; *P < 0.05) was 3.98 pM and the “Emax ± S.E.M. (% WT)” value [7] was 100.39 ± 2.54 % WT. The EC50 ([7]; ****P < 0.0001) was 66.1 pM, the “Emax ± S.E.M. (% WT)” value [8] was 100.47 ± 2.15 % WT and the EC50 ([8]; ****P < 0.0001) was 123 pM. For the same compound, the “change of retatrutide potency by mutation” value ([9]; GCGR S297(ECL2)A) was “slightly increased”, the “decrease of cAMP signaling potency by mutation” value ([9]; GCGR Y138(1.36b)A) was 26.9 fold and the “change of cAMP signaling potency by mutation” value ([9]; GCGR Y138(1.36b)L) was “moderately increased”. The EC50 [10] was 4.9 pM, the “Emax ± S.E.M. (% WT)” value [10] was 100.48 ± 1.34 % WT and the “Emax ± S.E.M. (% WT)” value [11] was 101.55 ± 2.54 % WT. The EC50 ([11]; ****P < 0.0001) was 263 pM, the “Emax ± S.E.M. (% WT)” value [12] was 100.58 ± 1.33 % WT and the EC50 ([12]; ****P < 0.0001) was 47.9 pM.
